The source of these data is patent US20170320870A1 (Medical Research Council Technology, priority 2009, published 2017).

The experiment has as its target T1, LRRK2 wild type (recombinant human, catalytic domain amino acids 970-2527, GST-tagged) (Homo sapiens, UniProt Q5S007).
T1 construct: The wild type used was recombinant human, catalytic domain (amino acids 970-2527) GST-tagged, expressed in insect cells; GST; purchased Invitrogen Corporation PV4873; host or cells: insect cells
Description: LRRK2 wild type protein kinase assay ([γ-33P] ATP, peptide substrate […]), IC50. It is filed as biochemical. The settings on record: LRRK2 (variant not given); read-out: Potency score, LRRK2 IC50. Summed up: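 Insect-cell-expressed enzyme (~5 nM), no activation, incubated 180 min at ~21 °C in 50 mM Tris-HCl pH 7.5, 0.1 mM EGTA, 1 mM DTT, 10 mM MgCl2 with 100 μM peptide substrate and [γ-33P]ATP. Reaction stopped with orthophosphoric acid, captured on P81 filters and counted; IC50 from 10 concentrations in duplicate.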

Where only a bound is given, the exact number is not on record here.

T1 sequence (Q5S007 970-2527): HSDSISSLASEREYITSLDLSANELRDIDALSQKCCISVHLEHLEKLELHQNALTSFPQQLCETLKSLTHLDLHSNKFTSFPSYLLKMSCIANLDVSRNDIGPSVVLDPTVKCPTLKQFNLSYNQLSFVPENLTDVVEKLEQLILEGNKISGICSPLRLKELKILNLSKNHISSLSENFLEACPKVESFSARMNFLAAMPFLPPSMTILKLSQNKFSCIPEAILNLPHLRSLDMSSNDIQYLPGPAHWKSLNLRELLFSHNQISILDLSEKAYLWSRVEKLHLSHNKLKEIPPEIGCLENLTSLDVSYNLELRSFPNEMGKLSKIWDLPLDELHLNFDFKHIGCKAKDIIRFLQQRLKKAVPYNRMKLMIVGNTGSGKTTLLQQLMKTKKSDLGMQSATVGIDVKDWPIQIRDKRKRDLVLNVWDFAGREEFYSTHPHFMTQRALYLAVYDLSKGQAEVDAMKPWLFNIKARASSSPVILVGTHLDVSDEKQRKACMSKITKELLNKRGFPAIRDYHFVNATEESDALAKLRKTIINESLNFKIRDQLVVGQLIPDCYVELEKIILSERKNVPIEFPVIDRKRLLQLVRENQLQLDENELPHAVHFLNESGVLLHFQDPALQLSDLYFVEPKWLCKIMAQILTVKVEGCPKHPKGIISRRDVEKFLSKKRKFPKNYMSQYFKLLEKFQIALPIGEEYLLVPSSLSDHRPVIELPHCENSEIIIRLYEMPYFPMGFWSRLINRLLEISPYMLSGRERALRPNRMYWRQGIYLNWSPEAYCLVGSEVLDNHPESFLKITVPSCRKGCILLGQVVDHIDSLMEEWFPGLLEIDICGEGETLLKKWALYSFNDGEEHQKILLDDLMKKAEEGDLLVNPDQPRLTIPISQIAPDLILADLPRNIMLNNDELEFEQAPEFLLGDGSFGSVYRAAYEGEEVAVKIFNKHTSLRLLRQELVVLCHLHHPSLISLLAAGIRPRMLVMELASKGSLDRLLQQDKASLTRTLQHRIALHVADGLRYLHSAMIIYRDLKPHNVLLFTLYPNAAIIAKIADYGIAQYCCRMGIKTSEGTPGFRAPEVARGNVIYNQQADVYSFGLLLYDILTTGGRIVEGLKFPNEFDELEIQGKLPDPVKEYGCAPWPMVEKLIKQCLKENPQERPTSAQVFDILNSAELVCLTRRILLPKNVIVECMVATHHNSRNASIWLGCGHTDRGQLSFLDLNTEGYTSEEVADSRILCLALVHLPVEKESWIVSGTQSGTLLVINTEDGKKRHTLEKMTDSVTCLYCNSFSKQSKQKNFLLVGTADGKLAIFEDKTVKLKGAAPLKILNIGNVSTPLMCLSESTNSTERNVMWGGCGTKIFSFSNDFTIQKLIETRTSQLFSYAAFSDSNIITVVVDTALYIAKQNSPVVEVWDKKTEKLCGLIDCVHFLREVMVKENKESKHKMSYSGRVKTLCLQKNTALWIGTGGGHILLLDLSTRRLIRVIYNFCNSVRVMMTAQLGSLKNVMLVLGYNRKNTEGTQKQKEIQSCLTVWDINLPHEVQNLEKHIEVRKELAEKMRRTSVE

Broadly, the IC50 is the concentration at which inhibition is half-maximal. Take `Cc1n[nH]c2ccnc(NCC3CC3)c12` [Example 18, Cyclopropylmethyl-(3-methyl-1H-pyrazolo[4,3-c]pyridin-4-yl)-amine]: the IC50 was in the range of 1000 to 10000 nM.
`COCCNC(=O)CCc1n[nH]c2ccnc(NC3CCCCC3)c12` [Example 211, 3-(4-Cyclohexylamino-1H-pyrazolo[4,3-c]pyridin-3-yl)-N-(2-methoxy-ethyl)-propionamide]: the IC50 lay within 1000 to 10000 nM.
Turning to `COCCNc1nccc2[nH]nc(C)c12` [Example 6, (2-Methoxy-ethyl)-(3-methyl-1H-pyrazolo[4,3-c]pyridin-4-yl)-amine], the IC50 was 1000 to 10000 nM.
Regarding `COCCNC(=O)c1ccc(Nc2nccc3[nH]nc(C)c23)cc1` [Example 108, N-(2-Methoxy-ethyl)-4-(3-methyl-1H-pyrazolo [4,3-c]pyridin-4-ylamino)-benzamide], the IC50 is 1000 to 10000 nM.
For `Cc1n[nH]c2ccnc(Nc3ccc(Cl)cc3)c12` [Example 310, (4-Chloro-phenyl)-(3-methyl-1H-pyrazolo[4,3-c]pyridin-4-yl)-amine], the IC50 is 100 to 1000 nM.
Regarding `Cc1n[nH]c2ccnc(Nc3cc(F)ccc3F)c12` [Example 308, (2,5-Difluoro-phenyl)-(3-methyl-1H-pyrazolo[4,3-c]pyridin-4-yl)-amine], the IC50 was in the range of 100 to 1000 nM.
For the molecule `CNC(=O)CCc1n[nH]c2ccnc(NC3CCCCC3)c12` [Example 210, 3-(4-Cyclohexylamino-1H-pyrazolo[4,3-c]pyridin-3-yl)-N-methyl-propionamide], the IC50 lay within 1000 to 10000 nM.
The figure for `Cc1n[nH]c2ccnc(NC3CCN(C(=O)CCN4CCOCC4)CC3)c12` [Example 103, 1-[4-(3-Methyl-1H-pyrazolo[4,3-c]pyridin-4-ylamino)-piperidin-1-yl]-3-morpholin-4-yl-propan-1-one] is 1000 to 10000 nM; for `c1ccc([C@@H]2CCCN(CCCc3n[nH]c4ccnc(NC5CCCCC5)c34)C2)cc1` [Example 215, Cyclohexyl-{3-[3-((S)-3-phenyl-piperidin-1-yl)-Propyl]-1H-pyrazolo[4,3-c]pyridin-4-yl}-amine] it is 1000 to 10000 nM; for `CN1CCN(C(=O)CCc2n[nH]c3ccnc(NC4CCCCC4)c23)CC1c1ccccc1` (centres unmarked) [Example 245, 3-(4-Cyclohexylamino-1H-pyrazolo[4,3-c]pyridin-3-yl)-1-(4-methyl-3-phenyl-piperazin-1-yl)-propan-1-one] it is 100 to 1000 nM.
`COc1ccccc1NC(=O)c1ccc(Nc2nccc3[nH]nc(C)c23)cc1` [Example 111, N-(2-Methoxy-phenyl)-4-(3-methyl-1H-pyrazolo[4,3-c]pyridin-4-ylamino)-benzamide]: the IC50 is 1000 to 10000 nM.
The figure for `O=C(CCc1n[nH]c2ccnc(NC3CCCCC3)c12)N1CCCCC1c1cccnc1` (centres unmarked) [Example 208, 3-(4-Cyclohexylamino-1H-pyrazolo[4,3-c]pyridin-3-yl)-1-(3,4,5,6-tetrahydro-2H-[2,3′]bipyridinyl-1-yl)-propan-1-one] is below 100 nM.
The figure for `Cc1n[nH]c2ccnc(OC3CCCCC3)c12` [Example 114, 4-Cyclohexyloxy-3-methyl-1H-pyrazolo[4,3-c]pyridine] is below 100 nM; for `Fc1cccc(-c2n[nH]c3ccnc(NC4CCCCC4)c23)c1F` [Example 159] it is 1000 to 10000 nM.
On to `O=C(CCc1n[nH]c2ccnc(NC3CCCCC3)c12)N1CCCC(C(F)(F)F)C1` (centres unmarked) [Example 202, 3-(4-Cyclohexylamino-1H-pyrazolo[4,3-c]pyridin-3-yl)-1-(3-trifluoromethyl-piperidin-1-yl)-propan-1-one], for which the half-maximal inhibitory concentration (IC50) was in the range of 100 to 1000 nM.
With `Cc1n[nH]c2ccnc(-c3ccccc3F)c12` [Example 49, 4-(2-Fluoro-phenyl)-3-methyl-1H-pyrazolo[4,3-c]pyridine], the IC50 is 100 to 1000 nM.
As for `CC(C)n1cc(-c2n[nH]c3ccnc(NC4CCCCC4)c23)cn1` [Example 235, Cyclohexyl-[3-(1-isopropyl-1H-pyrazol-4-yl)-1H-pyrazolo[4,3-c]pyridin-4-yl]-amine], the IC50 is below 100 nM.
